# Laboratory results reported in PubChem BioAssay (NCI).
#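 GI50: concentration for 50% inhibition of growth. TGI marks complete inhibition of growth.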
# How the values were obtained:
# Test in all cases: DTP human tumour cell line panel, 384-well format
# 786-0 renal = test system: 786-0 renal
# A498 renal = test system: A498 renal
# A549 NSCLC = test system: A549 NSCLC
# ACHN renal = test system: ACHN renal
# BT-549 breast = test system: BT-549 breast
# CAKI-1 renal = test system: CAKI-1 renal
# CCRF-CEM leukemia = test system: CCRF-CEM leukemia
# COLO 205 colon = test system: COLO 205 colon
# DU-145 prostate = test system: DU-145 prostate
# HCC-2998 colon = test system: HCC-2998 colon
# HCT-116 colon = test system: HCT-116 colon
# HCT-15 colon = test system: HCT-15 colon
# HL-60(TB) leukemia = test system: HL-60(TB) leukemia
# HOP-62 NSCLC = test system: HOP-62 NSCLC
# HOP-92 NSCLC = test system: HOP-92 NSCLC
# HT29 colon = test system: HT29 colon
# IGROV1 ovarian = test system: IGROV1 ovarian
# K-562 leukemia = test system: K-562 leukemia
# KM12 colon = test system: KM12 colon
# LOX IMVI melanoma = test system: LOX IMVI melanoma
# M14 melanoma = test system: M14 melanoma
# MALME-3M melanoma = test system: MALME-3M melanoma
# MCF7 breast = test system: MCF7 breast
# MDA-MB-231 breast = test system: MDA-MB-231 breast
# MDA-MB-435 melanoma = test system: MDA-MB-435 melanoma
# MDA-MB-468 breast = test system: MDA-MB-468 breast
# MOLT-4 leukemia = test system: MOLT-4 leukemia
# NCI-H226 lung = test system: NCI-H226 lung
# NCI-H23 lung = test system: NCI-H23 lung
smiles,measurement,setting,value
CN(C)CC[C@H](CSc1ccccc1)Nc1ccc(S(=O)(=O)NC(=O)c2ccc(N3CCN(Cc4ccccc4-c4ccc(Cl)cc4)CC3)cc2)cc1[N+](=O)[O-],GI50,786-0 renal,1940 nM
same,TGI,786-0 renal,4740 nM
same,GI50,A498 renal,1420 nM
same,TGI,A498 renal,2980 nM
same,GI50,A549 NSCLC,3140 nM
same,TGI,A549 NSCLC,53200 nM
same,GI50,ACHN renal,5200 nM
same,TGI,ACHN renal,62800 nM
same,GI50,BT-549 breast,2230 nM
same,TGI,BT-549 breast,6130 nM
same,GI50,CAKI-1 renal,1830 nM
same,TGI,CAKI-1 renal,3730 nM
same,GI50,CCRF-CEM leukemia,145 nM
same,TGI,CCRF-CEM leukemia,372 nM
same,GI50,COLO 205 colon,1680 nM
same,TGI,COLO 205 colon,3120 nM
same,GI50,DU-145 prostate,4200 nM
same,TGI,DU-145 prostate,> 100000 nM
same,GI50,HCC-2998 colon,232 nM
same,TGI,HCC-2998 colon,750 nM
same,GI50,HCT-116 colon,1950 nM
same,TGI,HCT-116 colon,4070 nM
same,GI50,HCT-15 colon,1680 nM
same,TGI,HCT-15 colon,3170 nM
same,GI50,HL-60(TB) leukemia,47.7 nM
same,TGI,HL-60(TB) leukemia,218 nM
same,GI50,HOP-62 NSCLC,3180 nM
same,TGI,HOP-62 NSCLC,25400 nM
same,GI50,HOP-92 NSCLC,177 nM
same,TGI,HOP-92 NSCLC,1050 nM
same,GI50,HT29 colon,2900 nM
same,TGI,HT29 colon,13300 nM
same,GI50,IGROV1 ovarian,1480 nM
same,TGI,IGROV1 ovarian,3590 nM
same,GI50,K-562 leukemia,2170 nM
same,TGI,K-562 leukemia,5210 nM
same,GI50,KM12 colon,2050 nM
same,TGI,KM12 colon,6170 nM
same,GI50,LOX IMVI melanoma,2360 nM
same,TGI,LOX IMVI melanoma,4730 nM
same,GI50,M14 melanoma,2790 nM
same,TGI,M14 melanoma,8570 nM
same,GI50,MALME-3M melanoma,3150 nM
same,TGI,MALME-3M melanoma,11200 nM
same,GI50,MCF7 breast,1870 nM
same,TGI,MCF7 breast,4930 nM
same,GI50,MDA-MB-231 breast,1040 nM
same,TGI,MDA-MB-231 breast,2390 nM
same,GI50,MDA-MB-435 melanoma,2330 nM
same,TGI,MDA-MB-435 melanoma,6070 nM
same,GI50,MDA-MB-468 breast,1330 nM
same,TGI,MDA-MB-468 breast,3420 nM
same,GI50,MOLT-4 leukemia,119 nM
same,TGI,MOLT-4 leukemia,252 nM
same,GI50,NCI-H226 lung,1660 nM
same,TGI,NCI-H226 lung,3860 nM
same,GI50,NCI-H23 lung,2370 nM
